Where a SMILES comes first, the peptide text is derived from it. [ ]: non-standard residue; d: D form. Phe(4-F) = N[C@@H](Cc1ccc(F)cc1)C(=O)O; 1Nal = N[C@@H](Cc1cccc2ccccc12)C(=O)O; d(hPhe) = N[C@H](CCc1ccccc1)C(=O)O; Cha = N[C@@H](CC1CCCCC1)C(=O)O
Key:
[1] = molecular target: T1, human neurokinin-1 receptor (NK1R) (Homo sapiens, UniProt P25103); assay: Substance P receptor binding: 125I-substance P displacement from human NK1R expressed in COS cells; details: for IC50: 125I-SP, COS cells expressing human NK1R, read-out: IC50 (concentration required to inhibit the binding of substance P to the human neurokinin-1 receptor by 50%)
T1 construct: the cDNA for the human NK1R was cloned into the expression vector pCDM9; expressed in transfected cells; host or cells: COS cells (transient, electroporation, vector pCDM9)
Method: The affinity of a variety of compounds for the substance P receptor was determined employing the following procedure.
A. Receptor Expression in COS
To express the cloned human neurokinin-1 receptor (NK1R) transiently in COS, the cDNA for the human NK1R was cloned into the expression vector pCDM9 which was derived from pCDM8 (Invitrogen) by inserting the ampicillin resistance gene (nucleotide 1973 to 2964 from Bluescript SK+) into the Sac II site. Transfection of 20 μg of the plasmid DNA into 10 million COS cells was achieved by electroporation in 800 μl of the transfection buffer ([…], 1.2 mM MgCl2, 2.4 mM K2 HPO4, 0.6 mM KH2 PO4, 10 nM glucose, 10 mM HEPES pH 7.4) at 260V and 950 μF using the IBI Genezapper (IBI, New Haven, Conn.). The cells were incubated in 10% fetal calf serum, 2 mM glutamine, 100 U/ml penicillin-streptomycin, and 90% DMEM media (Gibco, Grand Island, N.Y.) in 5% CO2 at 37° C. for three days before the binding assay.
B. Assay Protocol using COS
The binding assay of human NK1R expressed in COS cells is based on the use of ^125 I-substance P (^125 I-SP, from DuPont, Boston, Mass.) as a radioactively labeled ligand which competes with unlabeled substance P or any other ligand for binding to the human NK1R. Monolayer cell cultures of COS were dissociated by the non-enzymatic solution (Specialty Media, Lavallette, N.J.) and resuspended in appropriate volume of the bind buffer (50 mM Tris pH 7.5, 5 mM MnCl2, 150 mM NaCl, 0.04 mg/ml bacitracin, 0.004 mg/ml leupeptin, 0.2 mg/ml BSA, 0.01 mM phosphoramidon) such that 200 μl of the cell suspension would give rise to about 10,000 cpm of specific ^125 I-SP binding (approximately 50,000 to 200,000 cells). In the binding assay, 200 μl of cells were added to a tube containing 20 μl of 1.5 to 2.5 nM of ^125 I-SP and 20 μl of unlabeled substance P or any other test compound. The tubes were incubated at 4° C. or at room temperature for 1 hour with gentle shaking. The bound radioactivity was separated from unbound radioactivity by GF/C filter (Brandel, Gaithersburg, Md.) which was pre-wetted with 0.1 polyethylenimine. The filter was washed with 3 ml of wash buffer (50 Tris pH 7.5, 5 mM MnCl21 150 mM NaCl) three times and its radioactivity was determined by gamma counter.
A variety of compounds were tested according to the COS cell procedure. The concentration of compound required to inhibit the binding of substance P to the human neurokinin-1 receptor by 50% was measured.

SRIF receptor = SRIF receptor affinity: displacement of 125I-CGP-23996 from AtT-20 cells; assay type: binding
Method: The affinity of a variety of compounds for the SRIF receptor was determined by studying the displacement of ^125 I-CGP-23996 from AtT-20 cells using the method generally in accordance with Raynor and Reisine, Journal of Pharmacology and Experimental Therapeutics, 1989, 251;2, 510.

β-adrenergic receptor = assay: Radioligand displacement from AtT-20 and brain cells, β-adrenergic receptor; assay type: binding
[2] = displacement of 125I-CGP-23996, AtT-20 cells

T1 sequence (P25103 whole entry): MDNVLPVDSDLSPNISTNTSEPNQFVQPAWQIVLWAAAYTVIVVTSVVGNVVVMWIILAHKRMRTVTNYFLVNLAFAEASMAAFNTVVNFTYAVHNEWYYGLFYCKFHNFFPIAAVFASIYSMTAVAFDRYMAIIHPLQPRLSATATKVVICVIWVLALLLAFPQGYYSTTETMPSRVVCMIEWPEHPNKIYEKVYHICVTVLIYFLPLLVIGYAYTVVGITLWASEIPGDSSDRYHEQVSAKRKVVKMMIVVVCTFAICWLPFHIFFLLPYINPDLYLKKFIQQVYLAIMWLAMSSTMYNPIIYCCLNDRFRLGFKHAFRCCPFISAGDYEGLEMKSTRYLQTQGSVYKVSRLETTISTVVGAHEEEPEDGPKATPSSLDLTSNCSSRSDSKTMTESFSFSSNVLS

SMILES	IC50 (HIV-1 protease) [nM]	also measured
CC(C)C[C@@H]1NC(=O)[C@@H](Cc2c[nH]c3ccccc23)NC(=O)[C@H](Cc2ccccc2)NC(=O)[C@@H]2CCCN2C(=O)[C@H](Cc2ccccc2)NC(=O)[C@H]([C@@H](C)O)NC1=O [(17a), Cyclo (Phe-D-Trp-Leu-Thr-Phe-Pro)] (cyclo(FPF[dW]LT))	3420	–
C[C@@H](O)[C@@H]1NC(=O)[C@H](Cc2ccccc2)NC(=O)[C@@H](Cc2c[nH]c3ccccc23)NC(=O)[C@H](Cc2ccccc2)NC(=O)[C@@H]2CCCN2C(=O)[C@H](Cc2ccccc2)NC1=O [(17b), Cyclo (Phe-D-Trp-Phe-Thr-Phe-Pro)] (cyclo(FPF[dW]FT))	330	–
C[C@@H](O)[C@@H]1NC(=O)[C@H](Cc2ccc(O)cc2)NC(=O)[C@@H](Cc2c[nH]c3ccccc23)NC(=O)[C@H](Cc2ccccc2)NC(=O)[C@@H]2CCCN2C(=O)[C@H](Cc2ccccc2)NC1=O [(17c), Cyclo (Phe-D-Trp-Tyr-Thr-Phe-Pro)] (cyclo(FPF[dW]YT))	2150	–
C[C@@H]1NC(=O)[C@@H](Cc2c[nH]c3ccccc23)NC(=O)[C@H](Cc2ccccc2)NC(=O)[C@@H]2CCCN2C(=O)[C@H](Cc2ccccc2)NC(=O)[C@H]([C@@H](C)O)NC1=O [(17d), Cyclo (Phe-D-Trp-Ala-Thr-Phe-Pro)] (cyclo(ATFPF[dW]))	9000	–
COc1ccc(C[C@@H]2NC(=O)[C@@H](Cc3c[nH]c4ccccc34)NC(=O)[C@H](Cc3ccccc3)NC(=O)[C@@H]3CCCN3C(=O)[C@H](Cc3ccccc3)NC(=O)[C@H]([C@@H](C)O)NC2=O)cc1 [(17e), Cyclo (Phe-D-Trp-p-MeO-Phe-Thr-Phe-Pro)] (cyclo(FPF[dW]Y(Me)T))	130	–
C[C@@H](O)[C@@H]1NC(=O)[C@H](Cc2ccc(F)cc2)NC(=O)[C@@H](Cc2c[nH]c3ccccc23)NC(=O)[C@H](Cc2ccccc2)NC(=O)[C@@H]2CCCN2C(=O)[C@H](Cc2ccccc2)NC1=O [(17f), Cyclo (Phe-D-Trp-p-F-Phe-Thr-Phe-Pro)] (cyclo(FPF[dW][Phe(4-F)]T))	37	–
C[C@@H](O)[C@@H]1NC(=O)[C@H](Cc2ccccc2)NC(=O)[C@@H](Cc2c[nH]c3ccccc23)NC(=O)[C@H](CO)NC(=O)[C@@H]2CCCN2C(=O)[C@H](Cc2ccccc2)NC1=O [(18a), Cyclo (Ser-D-Trp-Phe-Thr-Phe-Pro)] (cyclo(FPS[dW]FT))	2210	–
C[C@@H](O)[C@@H]1NC(=O)[C@H](Cc2ccccc2)NC(=O)[C@@H](Cc2c[nH]c3ccccc23)NC(=O)[C@H](CC(=O)O)NC(=O)[C@@H]2CCCN2C(=O)[C@H](Cc2ccccc2)NC1=O [(18b), Cyclo (Asp-D-Trp-Phe-Thr-Phe-Pro)] (cyclo(D[dW]FTFP))	4020	–
C[C@@H](O)[C@@H]1NC(=O)[C@H](Cc2ccccc2)NC(=O)[C@@H](Cc2c[nH]c3ccccc23)NC(=O)[C@H]2CCCN2C(=O)[C@@H]2CCCN2C(=O)[C@H](Cc2ccccc2)NC1=O [(18c), Cyclo (D-Pro-D-Trp-Phe-Thr-Phe-Pro)] (cyclo(FP[dP][dW]FT))	51	–
C[C@@H]1NC(=O)[C@@H]2CCCN2C(=O)[C@H](Cc2ccccc2)NC(=O)[C@H]([C@@H](C)O)NC(=O)[C@H](Cc2ccccc2)NC(=O)[C@@H](Cc2c[nH]c3ccccc23)NC1=O [(18d), Cyclo (Ala-D-Trp-Phe-Thr-Phe-Pro)] (cyclo(A[dW]FTFP))	2200	–
C[C@@H](O)[C@@H]1NC(=O)[C@H](Cc2ccccc2)NC(=O)[C@@H](Cc2c[nH]c3ccccc23)NC(=O)[C@H](Cc2c[nH]c3ccccc23)NC(=O)[C@@H]2CCCN2C(=O)[C@H](Cc2ccccc2)NC1=O [(18e), Cyclo (Trp-D-Trp-Phe-Thr-Phe-Pro)] (cyclo(FPW[dW]FT))	73	–
C[C@@H](O)[C@@H]1NC(=O)[C@H](Cc2ccccc2)NC(=O)[C@@H](Cc2c[nH]c3ccccc23)NC(=O)[C@@H](Cc2ccccc2)NC(=O)[C@@H]2CCCN2C(=O)[C@H](Cc2ccccc2)NC1=O [(18f), Cyclo (D-Phe-D-Trp-Phe-Thr-Phe-Pro)] (cyclo(FP[dF][dW]FT))	1120	–
C[C@@H](O)[C@@H]1NC(=O)[C@H](Cc2ccccc2)NC(=O)[C@@H](Cc2c[nH]c3ccccc23)NC(=O)[C@@H](CCc2ccccc2)NC(=O)[C@@H]2CCCN2C(=O)[C@H](Cc2ccccc2)NC1=O [(18g), Cyclo (D-Homo-Phe-D-Trp-Phe-Thr-Phe-Pro)] (cyclo(FP[d(hPhe)][dW]FT))	161	–
C[C@@H](O)[C@@H]1NC(=O)[C@H](Cc2ccccc2)NC(=O)[C@@H](Cc2c[nH]c3ccccc23)NC(=O)[C@H](CC2CCCCC2)NC(=O)[C@@H]2CCCN2C(=O)[C@H](Cc2ccccc2)NC1=O [(18h), Cyclo (Cha-D-Trp-Phe-Thr-Phe-Pro)] (cyclo([Cha][dW]FTFP))	700	–
C[C@@H](O)[C@@H]1NC(=O)[C@H](Cc2ccccc2)NC(=O)[C@@H](Cc2c[nH]c3ccccc23)NC(=O)[C@H](Cc2cccc3ccccc23)NC(=O)[C@@H]2CCCN2C(=O)[C@H](Cc2ccccc2)NC1=O [(18i), Cyclo (Nal-D-Trp-Phe-Thr-Phe-Pro)] (cyclo([1Nal][dW]FTFP))	22	–
CC(=O)NCCCCCOC[C@H]1O[C@@H](OCCc2cn(S(=O)(=O)c3ccccc3)c3ccccc23)[C@H](OCc2ccccc2)[C@@H](OCc2ccccc2)[C@@H]1OCc1ccccc1 [Compound 7, 2-(1-Phenylsulfonyl-indol-3yl)ethyl-6-O-(5-acetamidopentyl)-2,3,4-tri-O-benzyl-β-D-glucopyranoside]	–	IC50 [1]: 56 nM
CO[C@@H]1O[C@H](COCCCCCN)[C@@H](OCc2ccccc2)[C@H](OCc2ccccc2)[C@H]1OCc1ccccc1 [Compound 8, Methyl 6-O-(5-aminopentyl)-2,3,4-tri-O-benzyl-β-D-glucopyranoside]	–	binding to SRIF receptor (SRIF receptor): is bound by; IC50 (SRIF receptor; [2]): 40000 nM; binding to substance P receptor [1]: is bound by; IC50 [1]: 840 nM; binding to β-adrenergic receptor (β-adrenergic receptor): does not bind; Binding Inhibition (β-adrenergic receptor; 125I-CYP (0.1 nM), AtT-20): 0%
OC[C@@H]1C[C@H](OCc2ccccc2)[C@@H](OCc2ccccc2)[C@H](OCCc2c[nH]c3ccccc23)O1 [Compound 11, 2-Indol-3-yl-ethyl-2,3,-di-O-benzyl-4-deoxy-β-D-glucopyranoside]	–	IC50 [1]: 400 nM
CO[C@@H]1O[C@H](COCCCCCNC(=O)C(F)(F)F)[C@@H](OCc2ccccc2)[C@H](OCc2ccccc2)[C@H]1OCc1ccccc1 [Compound 13, Methyl 2,3,4-tri-O-benzyl-6-O-(N-trifluoroacetyl-5-aminopentyl)-β-D-glucopyranoside]	–	IC50 (affinity for the SRIF receptor) (SRIF receptor; [2]): does not bind; IC50 [1]: 1000 nM
C[C@@H](O)[C@@H]1NC(=O)[C@H](Cc2ccc(F)cc2)NC(=O)[C@@H](Cc2c[nH]c3ccccc23)NC(=O)[C@H](Cc2cccc3ccccc23)NC(=O)[C@@H]2CCCN2C(=O)[C@H](Cc2ccccc2)NC1=O [Compound (19), Cyclo (Nal-D-Trp-p-F-Phe-Thr-Phe-Pro)] (cyclo([1Nal][dW][Phe(4-F)]TFP))	2.8	–
C[C@@H](O)[C@@H]1NC(=O)[C@H](CCCCN)NC(=O)[C@@H](Cc2c[nH]c3ccccc23)NC(=O)[C@H](Cc2ccccc2)NC(=O)[C@@H]2CCCN2C(=O)[C@H](Cc2ccccc2)NC1=O [L-363,301, reference compound] (cyclo(PF[dW]KTF))	–	IC50 (SRIF receptor; [2]): 18.7 nM
CC(C)[C@@H]1NC(=O)[C@H](CCCCN)NC(=O)[C@@H](Cc2c[nH]c3ccccc23)NC(=O)[C@H](Cc2ccc(O)cc2)NC(=O)[C@H](C)N(C)C(=O)[C@H](Cc2ccccc2)NC1=O [MK 678, reference compound]	–	IC50 (SRIF receptor; [2]): 60 nM

Source: US5811512A, “Non-peptide peptidomimetics and related cyclic hexapeptides” (The Trustees of the University of Pennsylvania, priority 1996, dated 1998)
